Experimental data taken from PMC12446422, “Breastfeeding on ART and a closer look at drug transfer to HIV-exposed uninfected infants” (Scientific Reports, 2025).
Values joined by “and” are separate entries in the source; they are usually repeats but may differ in a detail not shown here. Equal entries are not always repeated. “Also recorded” adds a separate entry of the source.

Experiments:
[1] = ART drug monitoring in serum of breastfed HEU infants (HPLC-UV); type: in vivo, human; settings: for concentration at 6 months (infant age) / concentration at 1 month (infant age) / concentration at 4 months (infant age) / concentration at 14 days (infant age): human; for concentration at 6 months (infant age): 6 months of age, breastfeeding exclusive, partial or stopped; for Infant serum level, in words: breastfed infants, against detection limit or adult target range
Description: (§1) HIV-exposed infants were followed at the Pediatric Infectious Diseases Outpatient Clinic at the Department of General Pediatrics according to the current German and European guidelines for HIV-exposed or infected children[6],[11]. MLWH were followed at the department of Infection Medicine, Medical Service Centre Clotten, Freiburg. […] Two mothers (infants 2 and 4) were treated with dolutegravir 50 mg (DTG), abacavir 600 mg (ABC), and lamivudine 300 mg (3TC) once daily. The […] of infant 3 received tenofovir alafenamide/emtricitabine 25/200 mg (TAF/FTC) once daily in combination with nevirapine 200 mg (NVP) twice daily.
(§2) For all HIV-exposed children visits, clinical examinations and blood sampling took place at the age of one, four and 18 to 24 months. […] Routine blood tests included blood cell counts with differentials, transaminases, bilirubin at the first presentation, HIV-PCR and at 18–24 months or after cessation of breastfeeding HIV serology was performed. Primary outcome was infant serum drug exposure; breast-milk concentrations served as supportive secondary data. Serum samples of mothers and infants were drawn during visits to our clinic. Neither the timing of maternal drug intake and breastfeeding, nor the timing of the blood samples, was standardized. Therefore, no pharmacokinetic calculations could be performed. When available, additional serum samples of infants or mothers and a breast milk sample were sent to the Drug monitoring laboratory, Division of Infectious Diseases, Department of Internal Medicine II, University of Würzburg Medical Center, Germany. […] To assess the infant’s ART drug exposure upon breastfeeding, we calculated the relative infant dose (RID). The RID is a commonly used tool for assessing drug exposure and is calculated by dividing the infant’s ART level by the mother’s ART level, expressed as a decimal or percentage[13],[14]. All information for this study was derived from routine clinical exams and was, when available, retrospectively extracted from the patients’ medical records. […] For analysis, the HEU children were divided in 2 groups: HEU breastfed infants (n = 8) and HEU formula-fed infants (n = 62). […] All research was performed in accordance with relevant guidelines and regulations. Data collection and analysis were carried out in Microsoft Excel and R.

[2] = Relative infant dose (RID): infant ART level divided by mother's ART level; type: in vivo, human; settings: for < 10% RID: target RID expressed as infant serum level
Description: as §2
The RID is used for clinical risk assessment, with a target RID of below 10% indicating a low risk of adverse drug reactions in infants[16],[17].

[3] = statement in discussion; cited from earlier work
HEU breastfed infants = experiment: Absolute neutrophil count of ART-exposed HEU breastfed infants; type: in vivo, human
Description: as §2
ART serum levels above a 10% RID of the adult target range and neutropenia <1,0 (1000/µl) are indicated in bold.

[4] = target range for drug trough levels in adults; cited from earlier work
[5] = ART drug monitoring in maternal serum (HPLC-UV); type: in vivo, human; settings: for Maternal serum level, in words: against adult target range
Description: as §1, §2

[6] = ART drug monitoring in breast milk (HPLC-UV); type: in vivo, human; settings: oral, read-out: ART level in breast milk (BM); for concentration at 6 months (infant age): human one
Description: as §1, §2

[7] = statement in discussion; cited from earlier work; remark: listed apart in the source
[8] = serum, other: breastfeeding (maternal ART), read-out: ART level in infant serum (IS)
[9] = serum, other: breastfeeding (maternal ART), breastfed infant (entry one), read-out: ART level in infant serum (IS)
[10] = child, infant 1 (RPV), infant 3 (nevirapine), infant 2 (DTG)
[11] = 14 days, breastfed infant exposed to maternal ART, ZDV prophylaxis given
[12] = all occasions, infant serum below detection, infant 4 (DTG), 8 (RAL), 5 (DRV/r), 7 (RPV)

| Compound | concentration at 6 months (infant age) [1, 8] | concentration at 1 month (infant age) [1, 9] | RID (relative infant dose) [2, 10] | < 10% RID [2] | concentration at 6 months (infant age) [6] | concentration at 1 month (infant age) ([6]; human three) | RID (relative infant dose) [2, 12] | Lipophilicity [3] | Neutro_abs (absolute neutrophil count) (HEU breastfed infants; 1 month) | Neutro_abs (absolute neutrophil count) (HEU breastfed infants; 4 months) | Neutro_abs (absolute neutrophil count) (HEU breastfed infants; 6 months) | Neutro_abs (absolute neutrophil count) (HEU breastfed infants; 18 months) | Adult trough level [4] | Infant serum level, in words [1] | concentration at 4 months (infant age) ([6]; human two) | Neutro_abs (absolute neutrophil count) (HEU breastfed infants; [11]) | Maternal serum level, in words [5] | further results |
| --- | --- | --- | --- | --- | --- | --- | --- | --- | --- | --- | --- | --- | --- | --- | --- | --- | --- | --- |
| Cc1ccnc2c1NC(=O)c1cccnc1N2C1CC1 [NVP, nevirapine] | 649 ng/mL | 1210 ng/mL | 171% | < 670 ng/mL | – | – | – | highly lipophilic | 1,53 1000/ µl | 1,20 1000/ µl | 3,33 1000/ µl | 1,32 1000/ µl | 1600 to 6700 ng/mL | – | – | – | – | concentration at 4 months (infant age) ([1]; serum, other: breastfeeding (maternal ART), breastfed infant (entry two), read-out: ART level in infant serum (IS)): 1150 ng/mL; concentration at 6 months (infant age) ([5]; human one, serum, oral, read-out: ART level in maternal serum (MS)): 3930 ng/mL |
| CC(C)CN(C[C@@H](O)[C@H](Cc1ccccc1)NC(=O)O[C@H]1CO[C@H]2OCC[C@H]21)S(=O)(=O)c1ccc(N)cc1 [DRV, darunavir] | – | – | – | < 380 ng/mL | < 250 ng/mL | < 250 ng/mL | – | lipophilic | 0,69 1000/ µl | 0,64 1000/ µl | 1,15 1000/ µl | – | – | below detectable levels | < 250 ng/mL | 1,16 1000/ µl | – | concentration at 14 days (infant age) ([1]; in vivo, breastfed infant (entry one), read-out: ART level in infant serum (IS)): < 50 ng/mL; concentration at 4 months (infant age) ([1]; in vivo, breastfed infant (entry three), read-out: ART level in infant serum (IS)): < 50 ng/mL; concentration at 1 month (infant age) ([5]; female, human, in vivo, 1 month of age, read-out: ART level in maternal serum (MS)): 3800 ng/mL; concentration at 4 months (infant age) ([5]; female, human, in vivo, 4 months of age, read-out: ART level in maternal serum (MS)): 4130 ng/mL; concentration at 6 months (infant age) ([5]; female, human, in vivo, 6 months of age, read-out: ART level in maternal serum (MS)): 3360 ng/mL; Plasma protein binding [7]: high |
| Cc1nnc(C(=O)NC(C)(C)c2nc(C(=O)NCc3ccc(F)cc3)c(O)c(=O)n2C)o1 [RAL, raltegravir] | – | – | – | < 55 ng/mL | – | – | – | moderately lipophilic | 1,32 1000/ µl | – | – | 3,35 1000/ µl | – | below the detectable range | – | 2,74 1000/ µl | – | concentration at 1 month (infant age) ([1]; in vivo): < 75 ng/mL; concentration at 4 months (infant age) ([1]; in vivo): < 75 ng/mL; concentration at 14 days (infant age) ([1]; in vivo): < 75 ng/mL; concentration at 1 month (infant age) ([6]; female, human, 1 month of age): 293 ng/mL; concentration at 4 months (infant age) ([6]; female, human, 4 months of age): 168 ng/mL; concentration at 14 days (infant age) ([6]; female, human, 14 days of age): 1760 ng/mL; concentration at 1 month (infant age) ([5]; female, human, in vivo): 872 ng/mL; concentration at 4 months (infant age) ([5]; female, human, in vivo): 184 ng/mL; concentration at 14 days (infant age) ([5]; female, human, serum, oral, 14 days of age, timing of intake and sampling not standardized, read-out: ART level in maternal serum (MS)): < 75 ng/mL |

More lines, main results first:

| concentration at 6 months (infant age) [1, 8] | concentration at 1 month (infant age) [1, 9] | RID (relative infant dose) [2, 10] | < 10% RID [2] | concentration at 6 months (infant age) [6] | concentration at 1 month (infant age) ([6]; human three) | RID (relative infant dose) [2, 12] | Compound | Lipophilicity [3] | Neutro_abs (absolute neutrophil count) (HEU breastfed infants; 1 month) | Neutro_abs (absolute neutrophil count) (HEU breastfed infants; 4 months) | Neutro_abs (absolute neutrophil count) (HEU breastfed infants; 6 months) | Neutro_abs (absolute neutrophil count) (HEU breastfed infants; 18 months) | Adult trough level [4] | Infant serum level, in words [1] | concentration at 4 months (infant age) ([6]; human two) | Neutro_abs (absolute neutrophil count) (HEU breastfed infants; [11]) | Maternal serum level, in words [5] | further results |
| --- | --- | --- | --- | --- | --- | --- | --- | --- | --- | --- | --- | --- | --- | --- | --- | --- | --- | --- |
| – | < 50 ng/mL | 240% | < 400 ng/mL | 680 ng/mL | < 50 ng/mL | < 10% | C[C@@H]1CCO[C@H]2Cn3cc(C(=O)NCc4ccc(F)cc4F)c(=O)c(O)c3C(=O)N12 [DTG, dolutegravir] | moderately lipophilic | – | – | – | 3,25 1000/ µl | 250 to 4000 ng/mL | – | 648 ng/mL | 3,53 1000/ µl | within the therapeutic range | concentration at 4 months (infant age) ([5]; human two, serum, oral, read-out: ART level in maternal serum (MS)): 2410 ng/mL |
| < 50 ng/mL | – | 633% | < 20 ng/mL | < 50 ng/mL | < 50 ng/mL | < 10% | Cc1cc(/C=C/C#N)cc(C)c1Nc1ccnc(Nc2ccc(C#N)cc2)n1 [RPV, rilpivirine] | highly lipophilic | – | 1,80 1000/ µl and 1,15 1000/ µl and 1,05 1000/ µl | – | 1,77 1000/ µl and 1,65 1000/ µl and 1,39 1000/ µl | 50 to 200 ng/mL | below the detectable range; also recorded: below the range of detection; also recorded: above the adult target range | – | 2,25 1000/ µl and 2,27 1000/ µl | above the adult target range; also recorded: well above the adult therapeutic range | – |
